Reference: ChEMBL document CHEMBL1201861, “Genomics of Drug Sensitity in Cancer screening data, Wellcome Trust Sanger Institute”

Experiments:
Assay in all cases: cells
COLO-829 = assay type: functional, cell-based, Homo sapiens; settings: Homo sapiens, COLO-829
Description: SANGER: Inhibition of human COLO-829 cell growth in a cell viability assay.

CW-2 = assay type: functional, cell-based, Homo sapiens; settings: Homo sapiens, CW-2;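 also: growth inhibition of CW-2 cells, read out by a cell viability assay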
Description: SANGER: Inhibition of human CW-2 cell growth in a cell viability assay.

D283 Med = assay type: functional, cell-based, Homo sapiens; settings: Homo sapiens, D283 Med
Description: SANGER: Inhibition of human D-283MED cell growth in a cell viability assay.

DEL = assay type: functional, cell-based, Homo sapiens; settings: Homo sapiens, DEL;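 also: growth inhibition of the human DEL cell line, read out with a cell viability assay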
Description: SANGER: Inhibition of human DEL cell growth in a cell viability assay.

EKVX = assay type: functional, cell-based, Homo sapiens; settings: Homo sapiens, EKVX;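 also: growth inhibition of human EKVX cells, read out with a cell viability assay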
Description: SANGER: Inhibition of human EKVX cell growth in a cell viability assay.

GI-ME-N = assay type: functional, cell-based, Homo sapiens; settings: Homo sapiens, GI-ME-N;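 also: growth inhibition of human GI-ME-N cells, read out with a cell viability assay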
Description: SANGER: Inhibition of human GI-ME-N cell growth in a cell viability assay.

GR-ST = assay type: functional, cell-based, Homo sapiens; settings: Homo sapiens, GR-ST
Description: SANGER: Inhibition of human GR-ST cell growth in a cell viability assay.

HCC1187 = assay type: functional, cell-based, Homo sapiens; settings: Homo sapiens, HCC1187;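 also: growth inhibition of HCC1187 cells, read out with a cell viability assay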
Description: SANGER: Inhibition of human HCC1187 cell growth in a cell viability assay.

HD-MY-Z = assay type: functional, cell-based, Homo sapiens; settings: Homo sapiens, HD-MY-Z;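 also: growth inhibition of HD-MY-Z cells, read out with a cell viability assay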
Description: SANGER: Inhibition of human HD-MY-Z cell growth in a cell viability assay.

HL-60 = assay type: functional, cell-based, Homo sapiens; settings: Homo sapiens, HL-60;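 also: growth inhibition of human HL-60 cells, read out with a cell viability assay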
Description: SANGER: Inhibition of human HL-60 cell growth in a cell viability assay.

HT-144 = assay type: functional, cell-based, Homo sapiens; settings: Homo sapiens, HT-144
Description: SANGER: Inhibition of human HT-144 cell growth in a cell viability assay.

J-RT3-T3-5 = assay type: functional, cell-based, Homo sapiens; settings: Homo sapiens, J-RT3-T3-5;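 also: cell viability assay measuring growth inhibition of human J-RT3-T3-5 cells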
Description: SANGER: Inhibition of human J-RT3-T3-5 cell growth in a cell viability assay.

K5 = assay type: functional, cell-based, Homo sapiens; settings: Homo sapiens, K5
Description: SANGER: Inhibition of human K5 cell growth in a cell viability assay.

KALS-1 = assay type: functional, cell-based, Homo sapiens; settings: Homo sapiens, KALS-1; read-out: IC50;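 also: growth inhibition of KALS-1 cells, determined with a cell viability assay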
Description: SANGER: Inhibition of human KALS-1 cell growth in a cell viability assay.

KG-1 = assay type: functional, cell-based, Homo sapiens; settings: Homo sapiens, KG-1;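 also: growth inhibition of KG-1 cells, read out by a cell viability assay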
Description: SANGER: Inhibition of human KG-1 cell growth in a cell viability assay.

KM12 = assay type: functional, cell-based, Homo sapiens; settings: Homo sapiens, KM12;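 also: KM12 cell growth inhibition, read out with a cell viability assay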
Description: SANGER: Inhibition of human KM12 cell growth in a cell viability assay.

KNS-81-FD = assay type: functional, cell-based, Homo sapiens; settings: Homo sapiens, KNS-81-FD;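 also: growth inhibition of KNS-81-FD cells, read out with a cell viability assay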
Description: SANGER: Inhibition of human KNS-81-FD cell growth in a cell viability assay.

KP-N-YS = assay type: functional, cell-based, Homo sapiens; settings: Homo sapiens, KP-N-YS;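 also: cell viability assay measuring inhibition of cell line growth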
Description: SANGER: Inhibition of human KP-N-YS cell growth in a cell viability assay.

LB831-BLC = assay type: functional, cell-based, Homo sapiens; settings: Homo sapiens, LB831-BLC;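 also: growth inhibition of LB831-BLC cells, read out with a cell viability assay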
Description: SANGER: Inhibition of human LB831-BLC cell growth in a cell viability assay.

LB996-RCC = assay type: functional, cell-based, Homo sapiens; settings: Homo sapiens, LB996-RCC
Description: SANGER: Inhibition of human LB996-RCC cell growth in a cell viability assay.

LS-1034 = assay type: functional, cell-based, Homo sapiens; settings: Homo sapiens, LS-1034
Description: SANGER: Inhibition of human LS-1034 cell growth in a cell viability assay.

Lu-65 = assay type: functional, cell-based, Homo sapiens; settings: Homo sapiens, Lu-65;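 also: growth inhibition of Lu-65 cancer cells, read out by a cell viability assay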
Description: SANGER: Inhibition of human LU-65 cell growth in a cell viability assay.

LXF-289 cell line = assay type: functional, cell-based; settings: Homo sapiens
Description: SANGER: Inhibition of human LXF-289 cell growth in a cell viability assay.

MEG-01 = assay type: functional, cell-based, Homo sapiens; settings: Homo sapiens, MEG-01;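 also: growth inhibition of MEG-01 cells, read out by a cell viability assay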
Description: SANGER: Inhibition of human MEG-01 cell growth in a cell viability assay.

MHH-NB-11 = assay type: functional, cell-based, Homo sapiens; settings: Homo sapiens, MHH-NB-11;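 also: growth inhibition of human MHH-NB-11 cells, read out by a cell viability assay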
Description: SANGER: Inhibition of human MHH-NB-11 cell growth in a cell viability assay.

MHH-PREB-1 = assay type: functional, cell-based, Homo sapiens; settings: Homo sapiens, MHH-PREB-1;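 also: cell viability assay measuring inhibition of proliferation of human MHH-PREB-1 cells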
Description: SANGER: Inhibition of human MHH-PREB-1 cell growth in a cell viability assay.

MOLT-4 = assay type: functional, cell-based, Homo sapiens; settings: Homo sapiens, MOLT-4;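 also: growth inhibition of MOLT-4 cells, determined with a cell viability readout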
Description: SANGER: Inhibition of human MOLT-4 cell growth in a cell viability assay.

MV4-11 = assay type: functional, cell-based, Homo sapiens, MV-4-11; settings: Homo sapiens, MV4-11;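 also: cell viability readout measuring growth inhibition of human MV-4-11 cells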
Description: SANGER: Inhibition of human MV-4-11 cell growth in a cell viability assay.

NCI-H1650 = assay type: functional, cell-based, Homo sapiens; settings: Homo sapiens, NCI-H1650;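 also: growth inhibition of human NCI-H1650 cells measured by a cell viability assay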
Description: SANGER: Inhibition of human NCI-H1650 cell growth in a cell viability assay.

NCI-H23 = assay type: functional, cell-based, Homo sapiens; settings: Homo sapiens, NCI-H23;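 also: cell viability assay measuring growth inhibition of NCI-H23 cells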
Description: SANGER: Inhibition of human NCI-H23 cell growth in a cell viability assay.

NCI-H720 = assay type: functional, cell-based, Homo sapiens; settings: Homo sapiens, NCI-H720;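 also: growth inhibition of human NCI-H720 cells determined by a cell viability assay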
Description: SANGER: Inhibition of human NCI-H720 cell growth in a cell viability assay.

NEC8 = assay type: functional, cell-based, Homo sapiens; settings: Homo sapiens, NEC8;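 also: growth inhibition of human NEC8 cells, read out by a cell viability assay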
Description: SANGER: Inhibition of human NEC8 cell growth in a cell viability assay.

NH-12 = assay type: functional, cell-based, Homo sapiens; settings: Homo sapiens, NH-12;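 also: growth inhibition of NH-12 cells, read out with a cell viability assay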
Description: SANGER: Inhibition of human NH-12 cell growth in a cell viability assay.

ONS-76 = assay type: functional, cell-based, Homo sapiens; settings: Homo sapiens, ONS-76;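 also: growth inhibition of human ONS-76 cells, read out with a cell viability assay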
Description: SANGER: Inhibition of human ONS-76 cell growth in a cell viability assay.

PSN1 = assay type: functional, cell-based, Homo sapiens; settings: Homo sapiens, PSN1;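 also: suppression of growth of human PSN1 cells, read out by a cell viability assay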
Description: SANGER: Inhibition of human PSN1 cell growth in a cell viability assay.

RCC10RGB = assay type: functional, cell-based, Homo sapiens; settings: Homo sapiens, RCC10RGB;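 also: growth inhibition of human RCC10RGB cells, read out by a cell viability assay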
Description: SANGER: Inhibition of human RCC10RGB cell growth in a cell viability assay.

RPMI-8226 = assay type: functional, cell-based, Homo sapiens; settings: Homo sapiens, RPMI-8226
Description: SANGER: Inhibition of human RPMI-8226 cell growth in a cell viability assay.

SJSA-1 = assay type: functional, cell-based, Homo sapiens; settings: Homo sapiens, SJSA-1;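 also: growth inhibition of human SJSA-1 cells, read out through a cell viability measurement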
Description: SANGER: Inhibition of human SJSA-1 cell growth in a cell viability assay.

SK-LMS-1 = assay type: functional, cell-based, Homo sapiens; settings: Homo sapiens, SK-LMS-1;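 also: growth inhibition of human SK-LMS-1 cells, read out with a cell viability assay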
Description: SANGER: Inhibition of human SK-LMS-1 cell growth in a cell viability assay.

SK-N-DZ = assay type: functional, cell-based, Homo sapiens; settings: Homo sapiens, SK-N-DZ; read-out: IC50;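 also: growth inhibition of the cancer cell line, read out through a viability assay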
Description: SANGER: Inhibition of human SK-N-DZ cell growth in a cell viability assay.

SK-PN-DW = assay type: functional, cell-based, Homo sapiens; settings: Homo sapiens, SK-PN-DW;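 also: growth inhibition measured with a viability assay on these cells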
Description: SANGER: Inhibition of human SK-PN-DW cell growth in a cell viability assay.

A253 cell line = assay type: functional, cell-based, Homo sapiens; settings: Homo sapiens, A253;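 also: growth inhibition of A253 cells, read out with a cell viability assay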
Description: SANGER: Inhibition of human A253 cell growth in a cell viability assay.

AM-38 = assay type: functional, cell-based, Homo sapiens; settings: Homo sapiens, AM-38;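 also: growth inhibition of AM-38 cells of human origin, read out by a cell viability assay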
Description: SANGER: Inhibition of human AM-38 cell growth in a cell viability assay.

BB49-HNC = assay type: functional, cell-based, Homo sapiens; settings: Homo sapiens, BB49-HNC;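 also: cell viability assay read-out, reported as inhibition of BB49-HNC cell growth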
Description: SANGER: Inhibition of human BB49-HNC cell growth in a cell viability assay.

TE-10 = assay type: functional, cell-based, Homo sapiens; settings: Homo sapiens, TE-10;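 also: growth inhibition of TE-10 cells, measured by a cell viability assay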
Description: SANGER: Inhibition of human TE-10 cell growth in a cell viability assay.

U-87 MG = assay type: functional, cell-based, Homo sapiens, U-87MG ATCC; settings: Homo sapiens, U-87 MG;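 also: growth inhibition of the cells measured with a viability assay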
Description: SANGER: Inhibition of human U-87-MG cell growth in a cell viability assay.

UACC-257 = assay type: functional, cell-based, Homo sapiens; settings: Homo sapiens, UACC-257
Description: SANGER: Inhibition of human UACC-257 cell growth in a cell viability assay.

CCRF-CEM = assay type: functional, cell-based, Homo sapiens; settings: Homo sapiens, CCRF-CEM;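 also: inhibition of CCRF-CEM cell growth, measured by a cell viability assay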
Description: SANGER: Inhibition of human CCRF-CEM cell growth in a cell viability assay.

SMILES: CC(C)C[C@H](NC(=O)[C@H](Cc1ccccc1)NC(=O)c1cnccn1)B(O)O [BORTEZOMIB]
- IC50 (COLO-829): 0.614 nM
- IC50 (CW-2): 3.21 nM
- IC50 (D283 Med): > 20 nM
- IC50 (DEL): > 20 nM
- IC50 (EKVX): 2.14 nM
- IC50 (GI-ME-N): 0.634 nM
- IC50 (GR-ST): > 20 nM
- IC50 (HCC1187): 3.54 nM
- IC50 (HD-MY-Z): 3.93 nM
- IC50 (HL-60): 4.67 nM
- IC50 (HT-144): 0.576 nM
- IC50 (J-RT3-T3-5): > 20 nM
- IC50 (K5): 1.28 nM
- IC50 (KALS-1): 0.925 nM
- IC50 (KG-1): 7.94 nM
- IC50 (KM12): 1.27 nM
- IC50 (KNS-81-FD): 2.48 nM
- IC50 (KP-N-YS): > 20 nM
- IC50 (LB831-BLC): 0.641 nM
- IC50 (LB996-RCC): 3.4 nM
- IC50 (LS-1034): > 20 nM
- IC50 (Lu-65): 5.84 nM
- IC50 (LXF-289 cell line): 0.269 nM
- IC50 (MEG-01): 3.49 nM
- IC50 (MHH-NB-11): 4.91 nM
- IC50 (MHH-PREB-1): 4.86 nM
- IC50 (MOLT-4): 2.13 nM
- IC50 (MV4-11): 1.82 nM
- IC50 (NCI-H1650): > 20 nM
- IC50 (NCI-H23): 12.1 nM
- IC50 (NCI-H720): > 20 nM
- IC50 (NEC8): 3.35 nM
- IC50 (NH-12): > 20 nM
- IC50 (ONS-76): 0.33 nM
- IC50 (PSN1): 1.01 nM
- IC50 (RCC10RGB): 3.93 nM
- IC50 (RPMI-8226): 2.35 nM
- IC50 (SJSA-1): 2.21 nM
- IC50 (SK-LMS-1): 0.854 nM
- IC50 (SK-N-DZ): 3.26 nM
- IC50 (SK-PN-DW): 3.14 nM
- IC50 (A253 cell line): 0.208 nM
- IC50 (AM-38): > 20 nM
- IC50 (BB49-HNC): 0.652 nM
- IC50 (TE-10): 1.03 nM
- IC50 (U-87 MG): 16.8 nM
- IC50 (UACC-257): 0.71 nM
- IC50 (CCRF-CEM): 1.13 nM

SMILES: Cc1ccc(C(=O)Nc2ccc(CN3CCN(C)CC3)c(C(F)(F)F)c2)cc1C#Cc1cnc2cccnn12 [PONATINIB]
- IC50 (COLO-829): > 512 nM
- IC50 (CW-2): > 512 nM
- IC50 (D283 Med): > 512 nM
- IC50 (DEL): > 512 nM
- IC50 (EKVX): > 512 nM
- IC50 (GI-ME-N): > 512 nM
- IC50 (GR-ST): > 512 nM
- IC50 (HCC1187): > 512 nM
- IC50 (HD-MY-Z): > 512 nM
- IC50 (HL-60): > 512 nM
- IC50 (HT-144): 313 nM
- IC50 (J-RT3-T3-5): > 512 nM
- IC50 (K5): > 512 nM
- IC50 (KALS-1): > 512 nM
- IC50 (KG-1): 32.9 nM
- IC50 (KM12): 97.4 nM
- IC50 (KNS-81-FD): > 512 nM
- IC50 (KP-N-YS): > 512 nM
- IC50 (LB831-BLC): > 512 nM
- IC50 (LB996-RCC): > 512 nM
- IC50 (LS-1034): > 512 nM
- IC50 (Lu-65): > 512 nM
- IC50 (LXF-289 cell line): > 512 nM
- IC50 (MEG-01): < 2 nM
- IC50 (MHH-NB-11): > 512 nM
- IC50 (MHH-PREB-1): > 512 nM
- IC50 (MOLT-4): > 512 nM
- IC50 (MV4-11): < 2 nM
- IC50 (NCI-H1650): > 512 nM
- IC50 (NCI-H23): > 512 nM
- IC50 (NCI-H720): > 512 nM
- IC50 (NEC8): > 512 nM
- IC50 (NH-12): > 512 nM
- IC50 (ONS-76): > 512 nM
- IC50 (PSN1): > 512 nM
- IC50 (RCC10RGB): > 512 nM
- IC50 (RPMI-8226): > 512 nM
- IC50 (SJSA-1): > 512 nM
- IC50 (SK-LMS-1): > 512 nM
- IC50 (SK-N-DZ): > 512 nM
- IC50 (SK-PN-DW): > 512 nM
- IC50 (A253 cell line): > 512 nM
- IC50 (AM-38): > 512 nM
- IC50 (BB49-HNC): > 512 nM
- IC50 (TE-10): > 512 nM
- IC50 (U-87 MG): > 512 nM
- IC50 (UACC-257): > 512 nM
- IC50 (CCRF-CEM): > 512 nM
